We go through 11 compounds from patent publication US9399649B2, “Compounds for treating spinal muscular atrophy” (PTC Therapeutics Inc., priority 2012, dated 2016).

Some results are limits rather than exact numbers.

By melting point is commonly meant the temperature of the solid-liquid transition.

Data set [1] has as its system full length SMN2 minigene mRNA containing SMN2 exon 7. Description: SMN2 minigene mRNA splicing RT-qPCR assay in cultured cells. In kind it is cell-based, human. To be noted: Homo sapiens, HEK293-H; HEK293H cells stably transfected with SMN2-A minigene, 24 hours, 7-point concentration curve; concentration giving 1.5-fold full length SMN2 mRNA vs vehicle; read-out: EC1.5x for production of full length SMN2 mRNA. The method, then: The reverse transcription-quantitative PCR-based (RT-qPCR) assay is used to quantify the level of the full length SMN2 minigene mRNA containing SMN2 exon 7 in a HEK293H cell line stably transfected with said minigene and treated with a test compound.
HEK293H cells stably transfected with the SMN2-A minigene construct described above (10,000 cells/well) are seeded in 200 ut, of cell culture medium (DMEM plus 10% FBS, with 200 μg/mL hygromycin) in 96-well flat-bottom plates and the plate is immediately swirled to ensure proper dispersal of cells, forming an even monolayer of cells. Cells are allowed to attach for at least 4-6 hours. Test compounds are serially diluted 3.16-fold in 100% DMSO to generate a 7-point concentration curve. A solution of test compound (1 μL, 200× in DMSO) is added to each cell-containing well and the plate is incubated for 24 hours in a cell culture incubator (37° C., 5% CO2, 100% relative humidity). 2 replicates are prepared for each test compound concentration. The cells are then lysed in Cells-To-Ct lysis buffer and the lysate is stored at −80° C.
Primer SMN Forward A (SEQ ID NO. 1) hybridizes to a nucleotide sequence in exon 7 (nucleotide 22 to nucleotide 40), primer SMN Reverse A (SEQ ID NO. 2) hybridizes to a nucleotide sequence in the coding sequence of Firefly luciferase, SMN Probe A (SEQ ID NO. 3) hybridizes to a nucleotide sequence in exon 7 (nucleotide 50 to nucleotide 54) and exon 8 (nucleotide 1 to nucleotide 21). The combination of these three oligonucleotides detects only SMN1 or SMN2 minigenes (RT-qPCR) and will not detect endogenous SMN1 or SMN2 genes.
The SMN forward and reverse primers are used at final concentrations of 0.4 μM. The SMN probe is used at a final concentration of 0.15 μM. The GAPDH primers are used at final concentrations of 0.2 μM and the probe at 0.15 μM.
The SMN2-minigene GAPDH mix (15 μL total volume) is prepared by combining 7.5 μL of 2×RT-PCR buffer, 0.4 μL of 25×RT-PCR enzyme mix, 0.75 μL of 20×GAPDH primer-probe mix, 4.0075 μL of water, 2 μL of 10-fold diluted cell lysate, 0.06 μL of 100 μM SMN forward primer, 0.06 μL of 100 μM SMN reverse primer, and 0.225 μL of 100 μM SMN probe.
PCR is carried out at the following temperatures for the indicated time: Step 1: 48° C. (15 min); Step 2: 95° C. (10 min); Step 3: 95° C. (15 sec); Step 4: 60° C. (1 min); then repeat Steps 3 and 4 for a total of 40 cycles.
Each reaction mixture contains both SMN2-A minigene and GAPDH primersprobe sets (multiplex design), allowing simultaneous measurement of the levels of two transcripts.
Two SMN spliced products are generated from the SMN2 minigene. The first spliced product containing exon 7, corresponding to full length SMN2 mRNA, is referred to herein using the term “SMN2 minigene FL.” The second spliced product lacking exon 7 is referred to herein using the term “SMN2 minigene Δ7.”
The increase of SMN2 minigene FL mRNA relative to that in cells treated with vehicle control is determined from real-time PCR data using a modified ΔΔCt method (as described in Livak and Schmittgen, Methods, 2001, 25:402-8). The amplification efficiency (E) is calculated from the slope of the amplification curve for SMN2 minigene FL and GAPDH individually. The abundances of SMN2 minigene FL and GAPDH are then calculated as (1+E)^−Ct, where Ct is the threshold value for each amplicon. The abundance of SMN2 minigene FL is normalized to GAPDH abundance. The normalized SMN2 minigene FL abundance from test compound-treated samples is then divided by normalized SMN2 minigene FL abundance from vehicle-treated cells to determine the level of SMN2 FL mRNA relative to vehicle control.
For orientation: Real-time PCR tracks product formation cycle by cycle.

The test system of data set [2] is Smn protein. As to the kind of experiment: Smn protein assay in cultured cells (SMN HTRF). The class given is cell-based, human. As to conditions: SMA patient fibroblast cells (GM03813), 48 hours; for EC1.5x for Smn protein expression: 7-point concentration curve, concentration producing 1.5 times Smn protein vs DMSO vehicle; for maximum fold (Fold) increase of Smn protein: 7-point concentration data, relative to vehicle control. The method, then: The SMN HTRF (homogeneous time resolved fluorescence) assay is used to quantify the level of Smn protein in SMA patient fibroblast cells treated with test compounds.
Cells are thawed and cultured in DMEM-10% FBS for 72 hours. Cells are trypsinized, counted and re-suspended to a concentration of 25,000 cells/mL in DMEM-10% FBS. The cell suspensions are plated at 5,000 cells per well in a 96 well microtiter plate and incubated for 3 to 5 hours. […] Test compounds are serially diluted 3.16-fold in 100% DMSO to generate a 7-point concentration curve. 1 μL of test compound solution is transferred to cell-containing wells and cells are incubated for 48 hours in a cell culture incubator (37° C., 5% CO2, 100% relative humidity). Triplicate samples are set up for each test compound concentration. After 48 hours, the supernatant is removed from the wells and 25 μL of the RIPA lysis buffer, containing protease inhibitors, is added to the wells and incubated with shaking at room temperature for 1 hour. 25 μL of the diluent is added and then 35 μL of the resulting lysate is transferred to a 384-well plate, where each well contains 5 μL of the antibody solution (1:100 dilution of anti-SMN d2 and anti-SMN kryptate in SMN reconstitution buffer). The plate is centrifuged for 1 minute to bring the solution to the bottom of the wells, then incubated overnight at room temperature. Fluorescence for each well of the plate at 665 nm and 620 nm is measured on an EnVision multilabel plate reader (Perkin-Elmer).
The normalized fluorescence signal is calculated for each sample, Blank and vehicle control well by dividing the signal at 665 nm by the signal at 620 nm. Normalizing the signal accounts for possible fluorescence quenching due to the matrix effect of the lysate. The ΔF value (a measurement of Smn protein abundance as a percent value) for each sample well is calculated by subtracting the normalized average fluorescence for the Blank control wells from the normalized fluorescence for each sample well, then dividing this difference by the normalized average fluorescence for the Blank control wells and multiplying the resulting value by 100. The ΔF value for each sample well represents the Smn protein abundance from test compound-treated samples. The ΔF value for each sample well is divided by the ΔF value for the vehicle control wells to calculate the fold increase in Smn protein abundance relative to the vehicle control.
(In general: In TR-FRET formats the signal depends on donor and acceptor labels being close together.)

For the compound `COCCN1CCN(c2ccc3cc(-c4cn5cc(C)nc(C)c5n4)oc(=O)c3c2)C[C@@H]1C` [Cpd 146, 3-(6,8-dimethylimidazo[1,2-a]pyrazin-2-yl)-7-[(3S)-4-(2-methoxyethyl)-3-methylpiperazin-1-yl]-1H-isochromen-1-one], the melting point lay in the range of 221 to 226 °C. In addition, in data set [1], the EC (1.5-fold) was 0.1 to 0.3 µM. Also, in data set [2], the “EC1.5x for Smn protein expression” value is on record as “**** (an EC1.5×≦0.3 nM is indicated by four stars (****))” and the “maximum fold (Fold) increase of Smn protein” value (shortened to “maximum fold (Fold) increase”) is listed as “***** (a fold increase >1.65 is indicated by five stars (*****))”.
In the case of `Cc1cn2cc(-c3cc4ccc(N5CCN(C(C)(C)C)CC5)cc4c(=O)o3)nc2c(C)n1` [Cpd 83, 7-(4-tert-butylpiperazin-1-yl)-3-(6,8-dimethylimidazo[1,2-a]pyrazin-2-yl)-1H-isochromen-1-one], the melting point lay in the range of 300 to 302 °C. The EC (1.5-fold) in data set [1] was 0.1 to 0.3 µM. In addition, in data set [2], the “EC1.5x for Smn protein expression” value was “*** (an EC1.5× between >0.3 nM and ≦1 nM is indicated by three stars (***))”; the “maximum fold (Fold) increase” value is “**** (a fold increase between >1.5 and ≦1.65 is indicated by four stars (****))”.
On to `COc1ccc(-c2cc3ccc(N4CCN[C@@H](C)C4)cc3c(=O)o2)cc1F` [Cpd 43, 3-(3-fluoro-4-methoxyphenyl)-7-[(3S)-3-methylpiperazin-1-yl]-1H-isochromen-1-one], for which the melting point lay in the range of 209 to 211 °C. Moreover, in data set [1], the EC (1.5-fold) was at most 0.1 µM. In addition, in data set [2], the “EC1.5x for Smn protein expression” value was “**** (an EC1.5×≦0.3 nM is indicated by four stars (****))”; the “maximum fold (Fold) increase” value was “*** (a fold increase between >1.35 and ≦1.5 is indicated by three stars (***))”.
`COc1ccc(-c2cc3ccc(N4CCNCC4)cc3c(=O)o2)cc1` [Cpd 24, 3-(4-methoxyphenyl)-7-(piperazin-1-yl)-1H-isochromen-1-one] yielded a melting point of 235 to 238 °C. Besides, the EC (1.5-fold) in data set [1] is 0.1 to 0.3 µM. Moreover, in data set [2], the “EC1.5x for Smn protein expression” value is “*** (an EC1.5× between >0.3 nM and ≦1 nM is indicated by three stars (***))”; the “maximum fold (Fold) increase” value was “*** (a fold increase between >1.35 and ≦1.5 is indicated by three stars (***))”.
As to `Cc1nc(Cl)cn2cc(-c3cc4ccc(N5CCN[C@H](C)C5)cc4c(=O)o3)nc12` [Cpd 109, 3-(6-chloro-8-methylimidazo[1,2-a]pyrazin-2-yl)-7-[(3R)-3-methylpiperazin-1-yl]-1H-isochromen-1-one], the melting point fell in the range of 251 to 258 °C. For the same compound, in data set [1], the EC (1.5-fold) is at most 0.1 µM. Further, in data set [2], the “EC1.5x for Smn protein expression” value was “*** (an EC1.5× between >0.3 nM and ≦1 nM is indicated by three stars (***))”; the “maximum fold (Fold) increase” value is reported as “***** (a fold increase >1.65 is indicated by five stars (*****))”.
In turn, `Cc1cn2cc(-c3cc4ccc(N5CCN(C)[C@@H](C)C5)cc4c(=O)o3)nc2c(C)n1` [Cpd 66, 3-(6,8-dimethylimidazo[1,2-a]pyrazin-2-yl)-7-[(3S)-3,4-dimethylpiperazin-1-yl]-1H-isochromen-1-one] gave a melting point of 255 to 256 °C. In addition, the EC (1.5-fold) in data set [1] was at most 0.1 µM. In data set [2], the “EC1.5x for Smn protein expression” value was “**** (an EC1.5×≦0.3 nM is indicated by four stars (****))” and the “maximum fold (Fold) increase” value is recorded as “***** (a fold increase >1.65 is indicated by five stars (*****))”.
For `Cc1cn2cc(-c3cc4ccc(N5CCN[C@@H](C)C5)cc4c(=O)o3)nc2c(C)n1` [Cpd 63, 3-(6,8-dimethylimidazo[1,2-a]pyrazin-2-yl)-7-[(3S)-3-methylpiperazin-1-yl]-1H-isochromen-1-one], in that order: 325 to 327 °C, at most 0.1 µM, “**** (an EC1.5×≦0.3 nM is indicated by four stars (****))” and “***** (a fold increase >1.65 is indicated by five stars (*****))”.
For `Cc1cn2cc(-c3cc4ccc(N5CCN[C@@H](C)C5)cc4c(=O)o3)nc2cn1` [Cpd 57, 3-(6-methylimidazo[1,2-a]pyrazin-2-yl)-7-[(3S)-3-methylpiperazin-1-yl]-1H-isochromen-1-one], in that order: 242 to 244 °C, at most 0.1 µM, “**** (an EC1.5×≦0.3 nM is indicated by four stars (****))” and “***** (a fold increase >1.65 is indicated by five stars (*****))”.
In the case of `COc1ccc(-c2cc3ccc(N4CCN(C)CC4)cc3c(=O)o2)cc1` [Cpd 25, 3-(4-methoxyphenyl)-7-(4-methylpiperazin-1-yl)-1H-isochromen-1-one], the melting point fell in the range of 166 to 168 °C. In data set [1], the EC (1.5-fold) lay in the range of 1 to 3 µM. The “maximum fold (Fold) increase” value in data set [2] is “* (A maximum fold increase of ≦1.2 is indicated by one star (*))”.
For `O=c1oc(-c2nc3ccccc3s2)cc2ccc(N3CCCNCC3)cc12` [Cpd 10, 3-(1,3-benzothiazol-2-yl)-7-(1,4-diazepan-1-yl)-1H-isochromen-1-one], in that order: 277 to 279 °C, 1 to 3 µM and “* (A maximum fold increase of ≦1.2 is indicated by one star (*))”.
Take `Cc1cc2cc(-c3cc4ccc(N5CCNCC5)cc4c(=O)o3)ccc2o1` [Cpd 52, 3-(2-methyl-1-benzofuran-5-yl)-7-(piperazin-1-yl)-1H-isochromen-1-one]: the melting point was 206 to 208 °C. Further, in data set [1], the EC (1.5-fold) was in the range of 0.1 to 0.3 µM. In addition, in data set [2], the “EC1.5x for Smn protein expression” value is “* (An EC1.5× for Smn protein expression between >3 μM and <10 μM is indicated by one star (*))”; the “maximum fold (Fold) increase” value is “*** (a fold increase between >1.35 and ≦1.5 is indicated by three stars (***))”.
